Test [1] relates to SK-BR-3 cells. The test can be described thus: In vitro cell viability assay (CellTiter-Glo, 6 days). It is filed as cell-based, human. To be noted: Homo sapiens, SK-BR-3, free antifolate drugs. As to the method: (§1) FaDu, BxPC-3, HeLa, MV4-11, and RAJI cell lines were obtained from Deutsche Sammlung von Mikroorganismen und Zellkulturen (Leipzig, Germany). Jurkat NucLight Red cells were obtained from Essen BioScience Inc. (Ann Arbor, Mich., USA). SK-BR-3 and SK-OV-3 cells were cultured in McCoys 5A medium (Lonza; Walkersville, Md., USA) supplemented with 10% v/w Fetal Bovine Serum (FBS), Heat-inactivated (HI) (Gibco-Life Technologies; Carlsbad, Calif.) and 80 U/mL Pen/Strep (Gibco-Life Technologies), at 37° C. in a humidified incubator under 5% CO2 atmosphere. SW-620 cells were similarly maintained in RPMI 1640 medium (Lonza), containing 10% v/w FBS HI and 80 U/mL Pen/Strep. A-549 cells were similarly maintained in F-12K Nutrient Mixture (1×) (Gibco-Life Technologies) media supplemented with 80 U/mL Pen/Strep and 5% v/w FBS, which was Qualified (Q) (Gibco-Life Technologies). BT-474 and AU-565 cells were similarly maintained in RPMI 1640 medium (Lonza), containing 10% v/w FBS, which was Qualified (Q) (Gibco-Life Technologies), and 80 U/mL Pen/Strep. […] Jurkat NucLight Red cells were similarly maintained in RPMI 1640 medium (Lonza), containing 10% v/w FBS HI, 80 U/mL Pen/Strep and 0.5 μg/mL Puromycin (Gibco-Life Technologies). FaDu cells were cultured in EMEM medium (Lonza) supplemented with 10% v/w FBS HI (Gibco-Life Technologies), 1× GlutaMAX (Gibco-Life Technologies), and 80 U/mL Pen/Strep (Gibco-Life Technologies), at 37° C. in a humidified incubator under 5% CO2 atmosphere.
(§2) After an overnight incubation, 10 serial log 10 dilutions of the free drugs were made in DMSO (Sigma-Aldrich). These free drug dose-response curves were 10-times further diluted in complete growth medium. For the ADCs according to the invention 10 serial log 10 dilutions were made in complete growth medium. 10 μL of a composition comprising a free drug or an ADC according to the invention was added to the assay plate (final DMSO content for free drugs was 1%). […] […] Percentage cell survival was calculated by dividing the measured luminescence for each free drug or ADC according to the concentration with the average mean of untreated cells (1% or 0.1% DMSO control (for free drugs) or 100% complete growth medium (for ADCs)) multiplied by 100.
(§3) Curves were fitted by non-linear regression using the sigmoidal dose-response equation with variable slope (four parameters) using curve-fitting software (GraphPad Prism, version 9.4.0 for Windows, GraphPad, San Diego, Calif. or Electronic Laboratory Notebook (ELN) add-in BioAssay, version 19.1.0.0218, Perkin Elmer, Waltham, Mass.). Relative IC50 values were calculated as the concentration that gives a response halfway between bottom and top of the curve, when using a 4-parameter logistic fit. Data were reported as mean IC50 value of at least one experiment performed in duplicate.
A general note: ATP-based viability assays read luminescence as a measure of living cells.

In test [2] the test system is SW-620 cells. The description is as above. It counts as cell-based. To be noted: Homo sapiens, free antifolate drugs, Table 1a. As to the method: as §1
(§4) After an overnight incubation, 10 serial log 10 dilutions of the free drugs were made in DMSO (Sigma-Aldrich). These free drug dose-response curves were 10-times further diluted in complete growth medium. For the ADCs according to the invention 10 serial log 10 dilutions were made in complete growth medium. 10 μL of a composition comprising a free drug or an ADC according to the invention was added to the assay plate (final DMSO content for free drugs was 1%). […] Cell viability was assessed after 6 days using a luminescent assay kit (CellTiter-Glo™ (CTG), Promega Corporation) according to the manufacturer's instructions. Percentage cell survival was calculated by dividing the measured luminescence for each free drug or ADC according to the concentration with the average mean of untreated cells (1% or 0.1% DMSO control (for free drugs) or 100% complete growth medium (for ADCs)) multiplied by 100.
as §3

Test [3] concerns A-549 cells. The description is as above. The following applies: Homo sapiens, A549; free antifolate drugs, Table 1a; $ steep hillslope. It counts as cell-based. How it is done:
(§5) Human tumor cell lines SK-BR-3, SW-620, A-549, BT-474, Jurkat Clone E6-1, AU-565, and SK-OV-3 were obtained from American Type Culture Collection (Rockville, Md., USA). FaDu, BxPC-3, HeLa, MV4-11, and RAJI cell lines were obtained from Deutsche Sammlung von Mikroorganismen und Zellkulturen (Leipzig, Germany). Jurkat NucLight Red cells were obtained from Essen BioScience Inc. (Ann Arbor, Mich., USA). SK-BR-3 and SK-OV-3 cells were cultured in McCoys 5A medium (Lonza; Walkersville, Md., USA) supplemented with 10% v/w Fetal Bovine Serum (FBS), Heat-inactivated (HI) (Gibco-Life Technologies; Carlsbad, Calif.) and 80 U/mL Pen/Strep (Gibco-Life Technologies), at 37° C. in a humidified incubator under 5% CO2 atmosphere. SW-620 cells were similarly maintained in RPMI 1640 medium (Lonza), containing 10% v/w FBS HI and 80 U/mL Pen/Strep. A-549 cells were similarly maintained in F-12K Nutrient Mixture (1×) (Gibco-Life Technologies) media supplemented with 80 U/mL Pen/Strep and 5% v/w FBS, which was Qualified (Q) (Gibco-Life Technologies). BT-474 and AU-565 cells were similarly maintained in RPMI 1640 medium (Lonza), containing 10% v/w FBS, which was Qualified (Q) (Gibco-Life Technologies), and 80 U/mL Pen/Strep. Jurkat Clone E6-1, BxPC-3, HeLa, MV4-11, and RAJI cells were similarly maintained in RPMI 1640 medium (Lonza), containing 10% v/w FBS HI and 80 U/mL Pen/Strep. Jurkat NucLight Red cells were similarly maintained in RPMI 1640 medium (Lonza), containing 10% v/w FBS HI, 80 U/mL Pen/Strep and 0.5 μg/mL Puromycin (Gibco-Life Technologies). FaDu cells were cultured in EMEM medium (Lonza) supplemented with 10% v/w FBS HI (Gibco-Life Technologies), 1× GlutaMAX (Gibco-Life Technologies), and 80 U/mL Pen/Strep (Gibco-Life Technologies), at 37° C. in a humidified incubator under 5% CO2 atmosphere.
as §4, with “Cells in complete growth medium were plated in 96-well plates (90 μL/well) and incubated at 37° C., 5% CO2 at the following cell densities: 6500 SK-BR-3, 4000 SW-620, 2500 A-549, 10000 BT-474, 3000 Jurkat Clone E6-1, 5000 AU-565, 1250 FaDu, 1250 BxPC-3, 1000 HeLa, 7500 MV4-11, 1000 RAJI, 3000 Jurkat NucLight Red, and 4000 SK-OV-3 cells per well. After” for “After”
as §3

For test [4], the system named is AU-565 cells. The description is as above. The following applies: Homo sapiens, AU565, free antifolate drugs. It is filed as cell-based, human. As to the method:
as §1, §2, §3

In test [5] the test system is Jurkat NucLight Red cells. The test is described as above. It counts as cell-based, human. To be noted: Homo sapiens, Jurkat, free antifolate drugs. As to the method: as §1, §4, §3
The subject of test [6] is Human tumor cell lines. The test can be described thus: In vitro cell viability assays, free antifolate drugs, overall comparison. It is filed as cell-based. To be noted: compared with talotrexin or parent compound. How it is done: as §5
as §4, with “Cells in complete growth medium were plated in 96-well plates (90 μL/well) and incubated at 37° C., 5% CO2 at the following cell densities: 6500 SK-BR-3, 4000 SW-620, 2500 A-549, 10000 BT-474, 3000 Jurkat Clone E6-1, 5000 AU-565, 1250 FaDu, 1250 BxPC-3, 1000 HeLa, 7500 MV4-11, 1000 RAJI, 3000 Jurkat NucLight Red, and 4000 SK-OV-3 cells per well. After” for “After”
as §3

Structures are written as SMILES.

For the compound `Nc1nc(N)c2nc(CNc3ccc(C(=O)N[C@@H](CCCNC(=O)c4ccccc4C(=O)O)C(=O)O)cc3)cnc2n1` [Talotrexin, reference compound], the IC50 – broadly, the concentration at which inhibition is half-maximal – in test [1] (Table 1a) is 1.83 nM; in test [2], 1.74 nM; in test [3] it was 1.7 nM.
As for `Cc1c(CNc2ccc(C(=O)N[C@@H](CCCNC(=O)c3ccccc3C(=O)O)C(=O)O)cc2)ccc2nc(N)nc(N)c12` [Comparative compound 1, reference compound], the figures for the concentration for half-maximal inhibition (IC50) in test [1] (Table 1a), in test [2] and in test [3] were 0.92 nM, 1.41 nM and 1.97 nM, respectively.
Take `Nc1ccc(-c2cn(CCC[C@H](NC(=O)c3ccc(NCc4cnc5nc(N)nc(N)c5n4)cc3)C(=O)O)nn2)c(C(=O)O)c1` [XR22, (S)-5-Amino-2-(1-(4-carboxy-4-(4-(((2,4-diaminopteridin-6-yl)methyl)amino)benzamido)butyl)-1H-1,2,3-triazol-4-yl)benzoic acid]: the figures for the IC50 in test [4] (Table 1a), in test [1] (Table 1a) and in test [3] were 0.9 nM, 2.2 nM and ~2.5 nM, respectively.
For `Nc1ccc(C(=O)NCCC[C@H](NC(=O)c2ccc(NCc3cnc4nc(N)nc(N)c4n3)cc2)C(=O)O)c(C(=O)O)c1` [XT10, (S)-5-amino-2-((4-carboxy-4-(4-(((2,4-diaminopteridin-6-yl)methyl)-amino)benzamido)butyl)carbamoyl)benzoic acid], the IC50 in test [1] (Table 1a) is 1.9 nM; in test [2], 2.1 nM; in test [3] it was 2 nM.
With `Nc1ccc(C(=O)O)c(C(=O)NCCC[C@H](NC(=O)c2ccc(CCc3cnc4nc(N)nc(N)c4n3)cc2)C(=O)O)c1` [XT24, (S)-4-Amino-2-((4-carboxy-4-(4-(2-(2,4-diaminopteridin-6-yl)ethyl)benzamido)butyl)carbamoyl) benzoic acid], the IC50 was 18 nM in test [1] (Table 1a), 7.5 nM in test [2] and 27 nM in test [3].
On to `CN(Cc1cnc2nc(N)nc(N)c2n1)c1ccc(C(=O)N[C@@H](CCCNC(=O)c2cc(N)ccc2C(=O)O)C(=O)O)cc1` [XT20, (S)-4-Amino-2-((4-carboxy-4-(4-(((2,4-diaminopteridin-6-yl)methyl)(methyl)amino)benzamido)butyl)-carbamoyl)benzoic acid], for which the IC50 in test [1] (Table 1a) turned out to be 25 nM; in test [2] it was 12 nM; in test [3], 19 nM.
For `Nc1ccc(C(=O)NCCC[C@H](NC(=O)c2ccc(CCc3cnc4nc(N)nc(N)c4n3)cc2)C(=O)O)c(C(=O)O)c1` [XT25, (S)-5-amino-2-((4-carboxy-4-(4-(2-(2,4-diaminopteridin-6-yl)ethyl)benzamido)butyl)-carbamoyl)benzoic acid], the IC50 in test [1] (Table 1a) is 1 nM; in test [2], 1.1 nM; in test [3] it was 2.3 nM.
Take `Nc1ccc(C(=O)NCCC[C@H](NC(=O)c2ccc(NCc3ccc4nc(N)nc(N)c4c3Cl)cc2)C(=O)O)c(-c2nnn[nH]2)c1` [XT110, (S)-5-(4-Amino-2-(1H-tetrazol-5-yl)benzamido)-2-(4-(((2,4-diamino-5-chloroquinazolin-6-yl)methyl)amino)benzamido)pentanoic acid]: the IC50 in test [4] (Table 1b) is 0.36 nM; in test [4] (Table 1c), 0.44 nM; in test [1] (Table 1b, # no full dose-response curve) it was 0.41 nM; in test [1] (Table 1c), 0.54 nM; in test [5] (Table 1b), 0.75 nM; in test [5] (Table 1c) it was 0.92 nM. The “antifolate activity, comparison in words” value in test [6] is recorded as “strongly increased the antifolate activity”.
For the compound `Nc1nc(N)c2nc(CNc3ccc(C(=O)N[C@@H](CCCNC(=O)c4ccc(O)cc4)C(=O)O)cc3)cnc2n1` [XS14, (S)-2-(4-(((2,4-diaminopteridin-6-yl)methyl)amino)benzamido)-5-(4-hydroxybenzamido)pentanoic acid], the IC50 in test [4] (Table 1a) was 1.9 nM; in test [1] (Table 1a) it was 1.6 nM; in test [3], ~8.7 nM.
Consider `CN(Cc1cnc2nc(N)nc(N)c2n1)c1ccc(C(=O)N[C@@H](CCCNC(=O)c2ccc(N)cc2C(=O)O)C(=O)O)cc1` [XT21, (S)-5-amino-2-((4-carboxy-4-(4-(((2,4-diaminopteridin-6-yl)methyl)(methyl)amino)benzamido)butyl)carbamoyl)benzoic acid], for which the concentration for half-maximal inhibition (IC50) in test [1] (Table 1a) amounted to 2.1 nM; in test [2], 2.9 nM; in test [3], 2.3 nM.
For `Nc1ccc(C(=O)O)c(C(=O)NCCC[C@H](NC(=O)c2ccc(NCc3cnc4nc(N)nc(N)c4n3)cc2)C(=O)O)c1` [XT9, (S)-4-Amino-2-((4-carboxy-4-(4-(((2,4-diaminopteridin-6-yl)methyl)amino)benzamido)butyl)carbamoyl)-benzoic acid], in that order: 17 nM, 10 nM and 20 nM.
